Source: patent publication US9328112B2, “Tetracyclic CDK9 kinase inhibitors” (AbbVie Inc., priority 2014, dated 2016)
Where a name gives a salt, the structure may show the parent alone.

How the values were obtained:
H929 cells = experiment: Cell viability assay (Cell TiterGlo); format: cell-based; conditions: Cell TiterGlo luminescence
Procedure: The cell viability assay was performed using H929 cells. Cells were seeded in 96-well plates at 10,000 cells/well and, after overnight incubation, treated with compounds in a dose response of 3-fold dilutions from 10 μM to 0.005 μM ([…], 0.1% final DMSO concentration). After 24 hours at 37° C., cell viability was measured using Cell TiterGlo reagent (Promega) with a luminescence reader.

CDK9/Cyclin T1 = CDK9/Cyclin T1 (Homo sapiens (Human), UniProt P50750); experiment: CDK9 enzyme assay (LANCE ULight TR-FRET kinase assay); format: biochemical; conditions: 1000 μM ATP, 100 nM ULight MBP, kinase reaction 1 hour
Summary of the method: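 TR-FRET readout (ex 320 nm; em 615/665 nm) after 1 h detection with 0.5 nM europium anti-phospho-MBP antibody in 20 mM EDTA stop buffer. Preceding 1 h kinase step: CDK9/Cyclin T1, ULight-MBP substrate at 100 nM, ATP at 1000 μM, compound pre-diluted in DMSO then buffer.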

[1] = Homo sapiens, NCI-H929, 24 hours at 37° C.

Chain of CDK9/Cyclin T1 (P50750 whole entry): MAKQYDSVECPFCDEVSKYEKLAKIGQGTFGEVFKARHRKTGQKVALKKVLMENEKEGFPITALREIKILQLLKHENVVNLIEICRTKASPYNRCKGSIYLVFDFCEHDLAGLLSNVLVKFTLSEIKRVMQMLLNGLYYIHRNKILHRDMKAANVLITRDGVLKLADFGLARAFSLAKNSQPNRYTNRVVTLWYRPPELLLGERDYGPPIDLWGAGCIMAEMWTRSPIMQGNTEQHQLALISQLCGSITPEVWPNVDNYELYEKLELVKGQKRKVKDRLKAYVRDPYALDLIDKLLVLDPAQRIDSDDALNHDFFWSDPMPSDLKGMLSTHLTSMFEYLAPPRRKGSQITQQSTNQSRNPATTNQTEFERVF
Chain of CDK9/Cyclin T1 (O60563 whole entry partner): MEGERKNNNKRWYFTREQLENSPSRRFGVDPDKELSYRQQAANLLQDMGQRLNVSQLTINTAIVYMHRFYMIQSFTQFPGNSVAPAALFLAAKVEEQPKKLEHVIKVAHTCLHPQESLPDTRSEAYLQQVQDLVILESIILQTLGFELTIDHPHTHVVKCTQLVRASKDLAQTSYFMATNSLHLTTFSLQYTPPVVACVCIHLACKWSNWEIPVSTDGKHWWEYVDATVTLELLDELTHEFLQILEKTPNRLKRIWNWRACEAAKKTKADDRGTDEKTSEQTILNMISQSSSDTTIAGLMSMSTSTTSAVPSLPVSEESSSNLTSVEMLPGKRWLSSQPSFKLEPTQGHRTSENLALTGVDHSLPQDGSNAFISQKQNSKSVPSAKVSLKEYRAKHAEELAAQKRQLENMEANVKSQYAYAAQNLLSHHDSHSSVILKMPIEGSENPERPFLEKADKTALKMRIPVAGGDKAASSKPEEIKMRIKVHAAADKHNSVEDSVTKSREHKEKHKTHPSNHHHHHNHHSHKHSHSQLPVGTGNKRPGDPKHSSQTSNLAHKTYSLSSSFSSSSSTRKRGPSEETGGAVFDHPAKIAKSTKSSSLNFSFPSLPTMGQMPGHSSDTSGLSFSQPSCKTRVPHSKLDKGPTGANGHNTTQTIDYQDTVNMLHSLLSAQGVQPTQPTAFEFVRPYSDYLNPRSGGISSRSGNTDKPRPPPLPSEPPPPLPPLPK

| SMILES | IC50 (H929 cells; [1]) [nM] | IC50 (CDK9/Cyclin T1) [nM] | IC50 (H929 cells; 24 hours at 37° C.) [nM] |
| --- | --- | --- | --- |
| CN1Cc2c(C3=C[C@H]4CC[C@@H](C3)N4CC(=O)O)[nH]c3nccc(c23)-c2cc(F)ccc21 [Example 58, [(1R,5S)-3-(10-fluoro-7-methyl-6,7-dihydro-4H-3,4,7-triazadibenzo[cd,f]azulen-5-yl)-8-azabicyclo[3.2.1]oct-2-en-8-yl]acetic acid] | 1400 | 170 | – |
| CC[C@H]1c2c(C3=CCN(CC(=O)N(C)C)CC3)[nH]c3nccc(c23)-c2cc(F)ccc2N1C [Example 168, 2-{4-[(6S)-6-ethyl-10-fluoro-7-methyl-6,7-dihydro-4H-3,4,7-triazadibenzo[cd,f]azulen-5-yl]-3,6-dihydropyridin-1(2H)-yl}-N,N-dimethylacetamide] | 8 | 60 | – |
| CN1Cc2c(C3=CCCN(CC(=O)N4CC(O)C4)CC3)[nH]c3nccc(c23)-c2cc(F)ccc21 [Example 91, 2-[4-(10-fluoro-7-methyl-6,7-dihydro-4H-3,4,7-triazadibenzo[cd,f]azulen-5-yl)-2,3,6,7-tetrahydro-1H-azepin-1-yl]-1-(3-hydroxyazetidin-1-yl)ethanone] | 220 | 180 | – |
| CN1CCc2c(C3=CCN([C@H]4C[C@H](C(=O)O)C4)CC3)[nH]c3nccc(c23)-c2cc(F)ccc21 [Example 190, trans-3-[4-(8-fluoro-5-methyl-1,3,4,5-tetrahydro-1,5,12-triazabenzo[4,5]cycloocta[1,2,3-cd]inden-2-yl)-3,6-dihydropyridin-1(2H)-yl]cyclobutanecarboxylic acid] | – | 160 | 190 |
| CN(C)C(=O)CN1CC=C(c2[nH]c3ncc(F)c4c3c2CN(C)c2ccc(F)cc2-4)CC1 [Example 66, 2-[4-(1,10-difluoro-7-methyl-6,7-dihydro-4H-3,4,7-triazadibenzo[cd,f]azulen-5-yl)-3,6-dihydropyridin-1(2H)-yl]-N,N-dimethylacetamide] | 10 | 44 | – |
| CN1Cc2c(C3=CCN(CC(=O)N4CC(O)C4)CC3)[nH]c3nccc(c23)-c2cc(F)ccc21 [Example 18, 2-[4-(10-fluoro-7-methyl-6,7-dihydro-4H-3,4,7-triazadibenzo[cd,f]azulen-5-yl)-3,6-dihydropyridin-1(2H)-yl]-1-(3-hydroxyazetidin-1-yl)ethanone] | 160 | 44 | – |
| CCC1c2c(C3=CCNCC3)[nH]c3nccc(c23)-c2cc(F)ccc2N1C (centres unmarked) [Example 9, 6-ethyl-10-fluoro-7-methyl-5-(1,2,3,6-tetrahydropyridin-4-yl)-6,7-dihydro-4H-3,4,7-triazadibenzo[cd,f]azulene dihydrochloride] | 10 | 48 | – |
| CN1Cc2c(C3=C[C@@H](CO)NCC3)[nH]c3nccc(c23)-c2cc(F)ccc21 [Example 155, [(2S)-4-(10-fluoro-7-methyl-6,7-dihydro-4H-3,4,7-triazadibenzo[cd,f]azulen-5-yl)-1,2,5,6-tetrahydropyridin-2-yl]methanol] | 39 | 41 | – |
| CN1Cc2c(C3=CCN([C@H]4CC[C@@H](C(=O)O)CC4)CC3)[nH]c3ncc(F)c(c23)-c2ccccc21 [Example 183, cis-4-[4-(1-fluoro-7-methyl-6,7-dihydro-4H-3,4,7-triazadibenzo[cd,f]azulen-5-yl)-3,6-dihydropyridin-1(2H)-yl]cyclohexanecarboxylic acid] | 14 | 80 | – |
| CN1Cc2c(C3=CCN([C@H]4CC[C@H](CC(=O)O)CC4)CC3)[nH]c3nccc(c23)-c2cc(F)ccc21 [Example 130, {trans-4-[4-(10-fluoro-7-methyl-6,7-dihydro-4H-3,4,7-triazadibenzo[cd,f]azulen-5-yl)-3,6-dihydropyridin-1(2H)-yl]cyclohexyl}acetic acid] | 70 | 64 | – |
| CN1Cc2c(C3=CCN(S(C)(=O)=O)CC3)[nH]c3nccc(c23)-c2ccccc21 [Example 160, 7-methyl-5-[1-(methylsulfonyl)-1,2,3,6-tetrahydropyridin-4-yl]-6,7-dihydro-4H-3,4,7-triazadibenzo[cd,f]azulene] | 94 | 85 | – |
| CN1Cc2c(C3=CCCN(S(C)(=O)=O)C3)[nH]c3nccc(c23)-c2cc(F)ccc21 [Example 95, 10-fluoro-7-methyl-5-[1-(methylsulfonyl)-1,2,5,6-tetrahydropyridin-3-yl]-6,7-dihydro-4H-3,4,7-triazadibenzo[cd,f]azulene] | 1200 | 130 | – |
| CN1Cc2c(C3=C[C@H]4CC[C@@H](C3)N4CC(=O)N3CCC[C@H]3CO)[nH]c3nccc(c23)-c2cc(F)ccc21 [Example 79, 2-[(1R,5S)-3-(10-fluoro-7-methyl-6,7-dihydro-4H-3,4,7-triazadibenzo[cd,f]azulen-5-yl)-8-azabicyclo[3.2.1]oct-2-en-8-yl]-1-[(2S)-2-(hydroxymethyl)pyrrolidin-1-yl]ethanone] | 49 | 72 | – |
| CN(CC(O)CO)C(=O)CN1CC=C(c2[nH]c3nccc4c3c2CN(C)c2ccc(F)cc2-4)CC1 (centres unmarked) [Example 63, N-(2,3-dihydroxypropyl)-2-[4-(10-fluoro-7-methyl-6,7-dihydro-4H-3,4,7-triazadibenzo[cd,f]azulen-5-yl)-3,6-dihydropyridin-1(2H)-yl]-N-methylacetamide] | 90 | 38 | – |
| CN(CCO)C(=O)CN1CC=C(c2[nH]c3nccc4c3c2CN(C)c2cc(F)c(F)cc2-4)CC1 [Example 157, 2-[4-(9,10-difluoro-7-methyl-6,7-dihydro-4H-3,4,7-triazadibenzo[cd,f]azulen-5-yl)-3,6-dihydropyridin-1(2H)-yl]-N-(2-hydroxyethyl)-N-methylacetamide] | 10 | 46 | – |
| CN1CCc2c(C3=CCN([C@H]4C[C@@H](C(=O)O)C4)CC3)[nH]c3nccc(c23)-c2cc(F)ccc21 [Example 188, cis-3-[4-(8-fluoro-5-methyl-1,3,4,5-tetrahydro-1,5,12-triazabenzo[4,5]cycloocta[1,2,3-cd]inden-2-yl)-3,6-dihydropyridin-1(2H)-yl]cyclobutanecarboxylic acid] | – | 150 | 290 |
| CN1Cc2c(C3=CCN(CC(=O)N4CC[C@H](O)C4)CC3)[nH]c3ncc(F)c(c23)-c2cc(F)ccc21 [Example 73, 2-[4-(1,10-difluoro-7-methyl-6,7-dihydro-4H-3,4,7-triazadibenzo[cd,f]azulen-5-yl)-3,6-dihydropyridin-1(2H)-yl]-1-[(3S)-3-hydroxypyrrolidin-1-yl]ethanone] | 20 | 52 | – |
| CN1Cc2c(C3=CCN(CC(=O)N4CC[C@H](O)C4)CC3)[nH]c3nccc(c23)-c2cc(F)ccc21 [Example 42, 2-[4-(10-fluoro-7-methyl-6,7-dihydro-4H-3,4,7-triazadibenzo[cd,f]azulen-5-yl)-3,6-dihydropyridin-1(2H)-yl]-1-[(3S)-3-hydroxypyrrolidin-1-yl]ethanone] | 79 | 48 | – |
| CN1Cc2c(-c3cccc(CC(=O)O)c3)[nH]c3nccc(c23)-c2cc(F)ccc21 [Example 82, [3-(10-fluoro-7-methyl-6,7-dihydro-4H-3,4,7-triazadibenzo[cd,f]azulen-5-yl)phenyl]acetic acid] | 4700 | 100 | – |
